Legend:
[1] = molecular target: T1, ScLPMO10C (ScLPMO10C^(MMH)) (Streptomyces coelicolor, UniProt Q9RJY2); experiment: fluorescence stopped-flow, single-turnover reduction of LPMO-Cu(II); format: biochemical; conditions: reductant; 50 mM sodium phosphate pH 6.0, 25 °C, anaerobic, no polysaccharide; second-order rate constant only, no Km
T1 construct: gene celS2; full-length mature AA10-linker-CBM2, native signal peptide replaced by SmLPMO10A signal peptide (cleaved; N-terminal His35), E. coli periplasm, untagged, Cu(II)-loaded

[2] = molecular target: T2, ScAA10 (CD; catalytic domain of ScLPMO10C) (Streptomyces coelicolor, UniProt Q9RJY2); experiment: as above; format: biochemical; conditions: reductant; 50 mM sodium phosphate pH 6.0, 25 °C, anaerobic, no polysaccharide; second-order rate constant only, no Km
T2 construct: gene celS2; N-terminal His35), SmLPMO10A signal peptide cleaved, E. coli periplasm, untagged, Cu(II)-loaded
T2 sequence (Q9RJY2 entry or part of it): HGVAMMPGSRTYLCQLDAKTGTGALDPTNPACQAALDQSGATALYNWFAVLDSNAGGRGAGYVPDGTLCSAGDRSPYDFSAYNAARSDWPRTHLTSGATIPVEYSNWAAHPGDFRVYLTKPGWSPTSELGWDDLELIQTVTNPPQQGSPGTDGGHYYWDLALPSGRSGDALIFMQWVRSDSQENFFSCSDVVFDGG

T1 sequence (Q9RJY2 entry or part of it): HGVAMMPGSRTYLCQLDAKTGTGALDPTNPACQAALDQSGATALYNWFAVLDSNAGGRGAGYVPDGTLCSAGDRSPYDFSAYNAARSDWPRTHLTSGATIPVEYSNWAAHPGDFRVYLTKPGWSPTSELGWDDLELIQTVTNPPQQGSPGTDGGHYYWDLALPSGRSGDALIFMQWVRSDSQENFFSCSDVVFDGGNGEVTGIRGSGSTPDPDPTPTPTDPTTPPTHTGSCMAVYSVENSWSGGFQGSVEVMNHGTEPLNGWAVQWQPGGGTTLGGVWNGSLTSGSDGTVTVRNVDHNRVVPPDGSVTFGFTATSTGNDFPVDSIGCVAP

O=C1O[C@H]([C@@H](O)CO)C(O)=C1O [ascorbic acid]
k AscA [1]: the two variants exhibited identical reduction rates
k AscA [2]: the two variants exhibited identical reduction rates
